The values below come from PMC7961587, “Novel Cell Permeable Polymers of N-Substituted L-2,3-Diaminopropionic Acid (DAPEGs) and Cellular Consequences of Their Interactions with Nucleic Acids” (International Journal of Molecular Sciences, 2021).

Square brackets hold non-standard residues; d marks the D form. Peptide text beside a SMILES is read from it. * marks the point of attachment. 5FAM = O=C1OC2(c3ccc(O)cc3Oc3cc(O)ccc32)c2ccc(C(=O)*)cc21; Acetyl(2-(HOCH2CH2OCH2CH2O)) = O=C(COCCOCCO)*; Dap = NC[C@H](N)C(=O)O; AEEA = NCCOCCOCC(=O)O

Series [1] deals with MDA-MB-231 or HB-2 cell lines. The series can be described thus: Cytotoxicity assay: MTT. In kind it is cell-based, human. The settings on record: for Cytotoxicity at the concentration used in the cell experiments, in words: 10 µM, MTT, Figure S2, HB-2 and MDA-MB-231; for Cytotoxicity (percentage of dead cells): MTT assay, MDA-MB-231 or HB-2 cell lines, greatest concentration of 50 µg/mL, 24 h. As for the experimental part: Cell viability against cell-penetrating compounds was detected by the MTT assay. The HB2 and MDA-MB-231 cells were seeded into 96-well plates at a density of 5 × 10^3/well and 7 × 10^3/well, respectively, and incubated in complete medium (100 µL/well) for 48 h. […] Cells incubated in media without any test compounds were used as control. After incubation, medium containing test compounds was removed, and 225 µL fresh medium with 25 µL 3-(4,5-dimethylthiazol-2-yl)-2,5-diphenyltetrazolium bromide (MTT) was added (0.5 mg/mL per well). After incubation at 37 °C for 4 h, supernatants were removed, and the formazan crystals were dissolved overnight with dimethyl sulfoxide (DMSO; 150 µL/well). Results were analyzed using a microplate reader (SPECTROstar Nano, BMG LABTECH, Ortenberg, Germany) at 570 nm and 690 nm.

A further series relates to HB2 and MDA-MB-231 cells. The series can be described thus: Cell permeability and localization by fluorescence microscopy. The format is cell-based, human. The settings on record: for Cell membrane crossing and localization, in words: 10 µM, fluorescence microscopy, HB2 or MDA-MB-231 cells; for Cell Permeablility (Target): cellular localization: fluorescence microscope Olympus IX51, 10 µM fluorescently labeled compound, DAPI nucleus staining. The source says:
Preliminary cell permeability experiments facilitated the identification of three groups of compounds. […] The first group includes compound 4 and its derivatives (4a and 4b) and the family of compound 5 (5a and 5b). Compounds 4 and 5 are similar in structure and are composed of six residues of diaminopropionic acid (Dap) decorated with side chains of different lengths, terminating with the same highly positive guanidine moiety. […] Both compounds display unique cellular localization. […] We believe that such effective nuclear localisation of the first group of tested compounds is due to the effective mimicking of the nuclear localisation sequence (NLS). Such sequence consists of several positively charged lysines or arginines present in the protein structure. Additionally, side chain length of the polymer molecules seems to be a crucial factor that is optimal for compounds belonging to first group of polymers.
HB2 and MDA-MB-231 cells were seeded on 24-well plates at a density 1.5 × 10^4/well and 4 × 10^4/well, respectively, and incubated in 0.5 mL complete medium for 48 h. Subsequently, cells were washed with phosphate-buffered saline (PBS), and fresh medium with a fluorescently labeled peptide was added to each well at a concentration of 10 µM. For nucleus staining a DAPI solution (ThermoFisher Scientific, Waltham, MA, USA, […] R37606) in PBS was employed in conditions recommended by the supplier. After the incubation (2 h or 24 h), cells were washed thoroughly with PBS, and then a phenol red-free culture medium (FluoroBrite, DMEM) was added. Subsequently, the cells were examined using an Olympus IX51 fluorescence microscope (Olympus, Tokyo, Japan) using appropriate filters: blue for DAPI, green for FITC, and red TAMRA. Next, the images were merged and colocalization of the dyes’ emission were analyzed.

The target in another series is ssDNA (76 nt) fragment. Nature of the series: Microscale thermophoresis (MST), ssDNA binding. Also on record: species or system Homo sapiens. The following applies: Monolith NT.115, 0.437 µM 5/6-FAM-labeled compound, EDBS buffer pH 8, 32 °C 1 h, scanned at 25 °C, at least two independent experiments, read-out: Binding constant, single-stranded DNA (MST). How it is done:
(§1) Figure 7 Microscale thermophoresis (MST) analysis of dsDNA binding by 5/6-FAM-labeled compounds. The MST analysis. FAM-labeled compounds 1a (A), 4a (B), 5a (C), and ssDNA binding by 5/6-FAM-labeled compounds 1a (E), 4a (F), 5a (G) was performed using the Monolith NT.115 instrument (NanoTemper). Binding was measured between increasing concentrations (6.1 nM–200 µM) of dsDNA (76 bp fragment) and 0.437 µM of the indicated compounds labeled with 5/6-FAM. Control experiments were performed with DNA and 5/6-FAM dye (D,H).
(§2) Figure 9 Microscale thermophoresis (MST) analysis of dsDNA binding by 5/6-FAM-labeled compounds. The MST analysis of dsDNA binding by 5/6-FAM-labeled compounds 13a (A) and 14a (B), and ssDNA binding by 5/6-FAM-labeled compounds 13a (D) and 14a (E) was performed using the Monolith NT.115 instrument (NanoTemper). Binding was measured between increasing concentration (6.1 nM–200 µM) of dsDNA (76 bp fragment) and 0.437 µM of the indicated compounds labeled with 5/6-FAM. A control experiment was performed with DNA and 5/6-FAM dye (C,F).
(§3) Microscale thermophoresis was performed using the Monolith NT.115 instrument (NanoTemper Technologies GmbH, Munich, Germany). Binding between dsDNA (76 bp) or ssDNA (76 nt) fragments and test compounds labeled with 5/6-FAM was measured. […] All data were analyzed using MO Affinity Analysis software (NanoTemper, Munich, Germany).

Series [2] deals with dsDNA (76 bp fragment) containing the sequence of beta-actin. The series can be described thus: Microscale thermophoresis (MST), dsDNA binding. Details: species or system Homo sapiens. The following applies: Monolith NT.115, 0.437 µM 5/6-FAM-labeled compound, dsDNA 6.1 nM–200 µM, EDBS buffer pH 8, 32 °C 1 h, scanned at 25 °C, at least two independent experiments, read-out: Binding constant, double-stranded DNA (MST). How it is done: as §1, §2, §3

Series [3] deals with 76 bp dsDNA fragment containing the sequence of β-actin. The series can be described thus: Surface plasmon resonance (SPR), dsDNA binding. Details: species or system Homo sapiens. The settings on record: 50 and 100 µM compound over immobilized 76 bp dsDNA, HBS-EP buffer. How it is done:
Standard surface plasmon resonance (SPR) analyses using a Biacore T200 (GE Healthcare, Warsaw, Poland) were performed essentially as described in the manufacturers’ manual. DNA binding by all tested compounds was studied using a 5′-biotinylated 76 nt ssDNA or 76 bp dsDNA fragment containing the sequence of β-actin (Homo sapiens), immobilized on a streptavidin matrix-coated sensor chip SA (GE Healthcare, Warsaw, Poland). All oligonucleotides were commercially synthesized (oligo.pl, Poland; Figures S3 and S4). The dsDNA was immobilized on the sensor surface to yield a final value of ~50 RU for dsDNA or ~100 RU. Experiments were performed at 25 °C, and the running buffer was HBS-EP (150 mM NaCl, 10 mM HEPES (pH = 7.4), 3 mM EDTA, and 0.05% Surfactant P20). In binding experiments, the buffer flow rate was set to 15 µL/min, and in kinetic experiments, the buffer flow rate was 30 µL/min. The data were analyzed using Biacore T200 evaluation software (GE Healthcare, Warsaw, Poland). The results are presented as sensorgrams obtained after subtracting the background response signal from a reference flow cell and from a control experiment with buffer injection.
Figure 2S. Cytotoxicity of compounds 1a–9a as assessed by the MTT assay. Two different cell lines were used: A) HB‐2 and B) MDA‐MB‐231.
Figure 3S. Surface plasmon resonance SPR analysis of double‐stranded DNA (dsDNA) binding by various peptidomimetics. The SPR analysis of dsDNA binding was performed using: A) 50 μM and B) 100 μM of the indicated compounds, flowed over the SA sensor chip surface with immobilized 76 bp biotinylated DNA fragment containing the sequence of beta‐ actin (Homo sapiens). Injections were performed in HBS‐EP buffer. HBS‐EP was also used as […]
Figure 4S. SPR analysis of DNA binding by compound 5a. […] (C) Kinetic constants calculated from at least three experiments using Biacore T200 Evaluation Software […]
(In general: SPR reads the build-up and loss of mass on a sensor chip optically.)

For 5′,6-FAM -O2Oc-(D-arg)6-O2Oc-NH2 [2a], the “Cytotoxicity at the concentration used in the cell experiments, in words” value in series [1] is reported as “slightly cytotoxic”. In addition, in the series on HB2 and MDA-MB-231 cells, the “Cell membrane crossing and localization, in words” value was “partially visible in the cytoplasm in the form of granules”; the “Cell Permeablility (Target): cellular localization” value (shortened to “Cell Permeablility (Target)”) is reported as “cytoplasm”.

As to 5′,6-FAM -O2Oc-(Har)6-O2Oc-NH2 [3a], the “Cytotoxicity at the concentration used in the cell experiments, in words” value in series [1] is recorded as “slightly cytotoxic”. Also, in the series on HB2 and MDA-MB-231 cells, the “Cell membrane crossing and localization, in words” value is on record as “partially visible in the cytoplasm in the form of granules”; the “Cell Permeablility (Target)” value is reported as “cytoplasm”.

For the compound “5′,6-FAM [compound 10, reference compound]”, the results for the Kd (at ssDNA (76 nt) fragment; in series [2]) were 399 ± 497 µM and 639 ± 703 µM, respectively.

As for `NCCOCCOCC(=O)NC[C@H](NC(=O)COCCOCCNC(=O)c1ccc2c(c1)C(=O)OC21c2ccc(O)cc2Oc2cc(O)ccc21)C(=O)N[C@@H](CNC(=O)COCCOCCN)C(=O)N[C@@H](CNC(=O)COCCOCCN)C(=O)N[C@@H](CNC(=O)COCCOCCN)C(=O)N[C@@H](CNC(=O)COCCOCCN)C(=O)N[C@@H](CNC(=O)COCCOCCN)C(=O)NCCOCCOCC(N)=O` [8a, 5′,6-FAM-O2Oc-[Dap(O2)]6-O2Oc-NH2] ({5FAM-AEEA}-[Dap](AEEA)[Dap](AEEA)[Dap](AEEA)[Dap](AEEA)[Dap](AEEA)[Dap](AEEA)[AEEA]-NH2), the “Cell membrane crossing and localization, in words” value with HB2 and MDA-MB-231 cells is recorded as “did not cross the cell membrane”.

For the compound `NC(=O)COCCOCCNC(=O)[C@H](CNC(=O)COCCOCCO)NC(=O)[C@H](CNC(=O)COCCOCCO)NC(=O)[C@H](CNC(=O)COCCOCCO)NC(=O)[C@H](CNC(=O)COCCOCCO)NC(=O)[C@H](CNC(=O)COCCOCCO)NC(=O)[C@H](CNC(=O)COCCOCCO)NC(=O)COCCOCCNC(=O)c1ccc2c(c1)C(=O)OC21c2ccc(O)cc2Oc2cc(O)ccc21` [9a, 5′,6-FAM-O2Oc-[Dap(HO2)]6-O2Oc-NH2] ({5FAM-AEEA}-[Dap](Acetyl(2-(HOCH2CH2OCH2CH2O)))[Dap](Acetyl(2-(HOCH2CH2OCH2CH2O)))[Dap](Acetyl(2-(HOCH2CH2OCH2CH2O)))[Dap](Acetyl(2-(HOCH2CH2OCH2CH2O)))[Dap](Acetyl(2-(HOCH2CH2OCH2CH2O)))[Dap](Acetyl(2-(HOCH2CH2OCH2CH2O)))[AEEA]-NH2), the “Cell membrane crossing and localization, in words” value in the series on HB2 and MDA-MB-231 cells is reported as “did not cross the cell membrane”.

Consider `N=C(N)NCCC[C@H](NC(=O)COCCOCCN)C(=O)N[C@@H](CCCNC(=N)N)C(=O)N[C@@H](CCCNC(=N)N)C(=O)N[C@@H](CCCNC(=N)N)C(=O)N[C@@H](CCCNC(=N)N)C(=O)N[C@@H](CCCNC(=N)N)C(=O)NCCOCCOCC(N)=O` [compound 1, O2Oc(Arg)6-O2Oc-NH2], for which the “DNA binding class set arbitrarily from the SPR experiment (Figure S3)” value (shortened to “DNA binding class set arbitrarily”) in series [3] is given as “Moderate”. Moreover, the “Cytotoxicity (percentage of dead cells)” value in series [1] was 10%.

As to `N=C(N)NCCC[C@@H](NC(=O)COCCOCCN)C(=O)N[C@H](CCCNC(=N)N)C(=O)N[C@H](CCCNC(=N)N)C(=O)N[C@H](CCCNC(=N)N)C(=O)N[C@H](CCCNC(=N)N)C(=O)N[C@H](CCCNC(=N)N)C(=O)NCCOCCOCC(N)=O` [compound 2, O2Oc(D-arg)6-O2Oc-NH2], in series [3], the “DNA binding class set arbitrarily” value is “Moderate”. Moreover, the “Cytotoxicity (percentage of dead cells)” value in series [1] worked out at 15%.

Regarding `N=C(N)NCCCC[C@H](NC(=O)COCCOCCN)C(=O)N[C@@H](CCCCNC(=N)N)C(=O)N[C@@H](CCCCNC(=N)N)C(=O)N[C@@H](CCCCNC(=N)N)C(=O)N[C@@H](CCCCNC(=N)N)C(=O)N[C@@H](CCCCNC(=N)N)C(=O)NCCOCCOCC(N)=O` [compound 3, O2Oc-(Har)6-O2Oc-NH2], the “DNA binding class set arbitrarily” value in series [3] is given as “Weak”. Also, the “Cytotoxicity (percentage of dead cells)” value in series [1] was 10%.

On to `N=C(N)NCCOCCOCC(=O)NC[C@H](NC(=O)COCCOCCNC(=O)c1ccc2c(c1)C(=O)OC21c2ccc(O)cc2Oc2cc(O)ccc21)C(=O)N[C@@H](CNC(=O)COCCOCCNC(=N)N)C(=O)N[C@@H](CNC(=O)COCCOCCNC(=N)N)C(=O)N[C@@H](CNC(=O)COCCOCCNC(=N)N)C(=O)N[C@@H](CNC(=O)COCCOCCNC(=N)N)C(=O)N[C@@H](CNC(=O)COCCOCCNC(=N)N)C(=O)N[C@@H](CNC(=O)COCCOCCNC(=N)N)C(=O)N[C@@H](CNC(=O)COCCOCCNC(=N)N)C(=O)NCCOCCOCC(N)=O` [compound 14a, 5′,6-FAM-O2Oc-[Dap(GO2)]8-O2Oc-NH2], for which, in the series on HB2 and MDA-MB-231 cells, the “Cell membrane crossing and localization, in words” value was “efficiently penetrate the membrane and localized in the nucleus”; the “Cell Permeablility (Target)” value is recorded as “nucleus”.
